{"source": "patent US11648254B2", "about": "(Kumquat Biosciences Inc., priority 2021, dated 2023)", "key": {"SOS1": {"molecular_target": "SOS1 (Homo sapiens (Human), UniProt Q07889)", "sequence (Q07889 564-1049)": "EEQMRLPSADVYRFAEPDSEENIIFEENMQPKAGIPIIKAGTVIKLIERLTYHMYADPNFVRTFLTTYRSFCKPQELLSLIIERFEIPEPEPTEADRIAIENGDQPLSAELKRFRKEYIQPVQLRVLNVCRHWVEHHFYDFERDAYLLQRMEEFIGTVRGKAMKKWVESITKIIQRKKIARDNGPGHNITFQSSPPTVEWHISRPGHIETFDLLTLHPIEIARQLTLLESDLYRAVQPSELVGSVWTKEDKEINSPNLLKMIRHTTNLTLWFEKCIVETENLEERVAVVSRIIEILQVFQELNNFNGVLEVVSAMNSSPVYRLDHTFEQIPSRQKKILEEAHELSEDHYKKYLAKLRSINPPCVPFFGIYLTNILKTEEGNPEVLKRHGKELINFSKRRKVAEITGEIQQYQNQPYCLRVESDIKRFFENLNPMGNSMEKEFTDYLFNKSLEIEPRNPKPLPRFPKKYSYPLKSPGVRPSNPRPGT", "test": "Ras-SOS interaction assay (HTRF)", "format": "biochemical"}, "[1]": {"system": "MIA PaCa-2 cells (K-Ras G12C)", "test": "Ras-SOS cellular growth inhibition assay (CellTiter-Glo, 3D)", "format": "cell-based", "conditions": "Homo sapiens", "protocol": "MIA PaCa-2 (ATCC CRL-1420) and NCI-H1792 (ATCC CRL-5895) cell lines comprise a G12C mutation can be used to assess Ras cellular signaling in vitro, e.g., in response to a subject compound of the present disclosure. […] Cell culture medium (comprising, for example, MIA PaCa-2 cells) is prepared with DMEM/Ham's F12 (e.g., with stable Glutamine, 10% FCS, and 2.5% Horse Serum. NCI-H1792 culture medium is prepared with RPMI 1640 (e.g., with stable Glutamine) and 10% FCS. A CellTiter-Glo (CTG) luminescent based assay (Promega) is used to assess growth of the cells, as a measurement of the ability of the compounds herein to inhibit Ras signaling in the cells. The cells (e.g., 800-1200 per well) are seeded in their respective culture medium in standard tissue culture-treated ultra-low attachment surface 96-well format plates (Corning Costar #3474). The day after plating, cells are treated with a dilution series (e.g., a 9 point 3-fold dilution series) of the compounds herein (e.g., approximately 125 μl final volume per well). Cell viability can be monitored (e.g., approximately 5 days later) according to the manufacturer's recommended instructions, where the CellTiter-Glo reagent is added (e.g., approximately 65 μl), vigorously mixed, covered, and placed on a plate shaker (e.g., approximately for 20 min) to ensure sufficient cell lysis prior to assessment of luminescent signal. The IC50 values are determined using the four-parameter fit. The resulting IC50 value is a measurement of the ability of the compounds herein to reduce cell growth of Ras-driven cells as representative tumor cells."}, "[2]": {"system": "NCI-H1975 cells (EGFR T790M L858R)", "test": "EGFR-SOS cellular inhibition assay (CellTiter-Glo, 3D)", "format": "cell-based", "conditions": "Homo sapiens"}, "[3]": {"conditions": "K-RasG13D utilized, read-out: IC50 inhibition of SOS"}, "[4]": {"conditions": "K-RasG13D, read-out: IC50 value against SOS1"}, "[5]": {"conditions": "MIA PaCa-2, 120 h, MIA PaCa-2, 3D proliferation, about 5 days, read-out: Bio-Cell-Prolif-3D (MiaPaca2 IC50)"}, "[6]": {"conditions": "MIA PaCa-2, MIA PaCa-2, read-out: IC50 in inhibiting MIA PaCa-2 cell growth"}, "[7]": {"conditions": "120 h, NCI-H1975, 3D proliferation, about 5 days, read-out: Bio-Cell-Prolif-3D (H1975 IC50)"}, "[8]": {"conditions": "NCI-H1975, EGFR T790M L858R, read-out: IC50 in inhibiting growth of NCI-H1975 cell line"}}, "note": "Where two headings read alike, the source gives them in different places.", "data": [{"smiles": "CNc1nc2nc(C)nc(N[C@H](C)c3cccc(C(F)F)c3F)c2cc1C1CCS(=O)(=O)CC1", "note": "[Compound 136, (R)-4-(4-((1-(3-(difluoromethyl)-2-fluorophenyl)ethyl)amino)-2-methyl-7-(methylamino)pyrido[2,3-d]pyrimidin-6-yl)tetrahydro-2H-thiopyran 1,1-dioxide]", "values": [{"measurement": "IC50", "setting": "SOS1; [3]", "result": "< 100", "unit": "nM"}, {"measurement": "IC50", "setting": "SOS1; [4]", "result": "< 50", "unit": "nM"}, {"measurement": "IC50", "setting": "[1]; [5]", "result": "≤ 1000", "unit": "nM"}, {"measurement": "IC50", "setting": "[1]; [6]", "result": "< 500", "unit": "nM"}, {"measurement": "IC50", "setting": "[2]; [7]", "result": "≤ 1000", "unit": "nM"}, {"measurement": "IC50", "setting": "[2]; [8]", "result": "< 500", "unit": "nM"}]}, {"smiles": "Cc1nc(N[C@H](C)c2cccc(C(F)F)c2F)c2cc(C3(C#N)CC3)c(OC3CCN(C)CC3)nc2n1", "note": "[Compound 232, (R)-1-(4-((1-(3-(difluoromethyl)-2-fluorophenyl)ethyl)amino)-2-methyl-7-((1-methylpiperidin-4-yl)oxy)pyrido [2,3-d]pyrimidin-6-yl)cyclopropane-1-carbonitrile]", "values": [{"measurement": "IC50", "setting": "SOS1; [3]", "result": "< 100", "unit": "nM"}, {"measurement": "IC50", "setting": "SOS1; [4]", "result": "< 50", "unit": "nM"}, {"measurement": "IC50", "setting": "[1]; [5]", "result": "≤ 1000", "unit": "nM"}, {"measurement": "IC50", "setting": "[1]; [6]", "result": "< 500", "unit": "nM"}, {"measurement": "IC50", "setting": "[2]; [7]", "result": "≤ 1000", "unit": "nM"}, {"measurement": "IC50", "setting": "[2]; [8]", "result": "< 500", "unit": "nM"}]}, {"smiles": "C#Cc1nc(N[C@H](C)c2cccc(C(F)F)c2F)c2cc(C3(C#N)CC3)c(OC)nc2n1", "note": "[Compound 276, (R)-1-(4-((1-(3-(difluoromethyl)-2-fluorophenyl)ethyl)amino)-2-ethynyl-7-methoxypyrido[2,3-d]pyrimidin-6-yl)cyclopropane-1-carbonitrile]", "values": [{"measurement": "IC50", "setting": "SOS1; [3]", "result": "< 100", "unit": "nM"}, {"measurement": "IC50", "setting": "[1]; [5]", "result": "1000 to 10000", "unit": "nM"}, {"measurement": "IC50", "setting": "[2]; [7]", "result": "1000 to 10000", "unit": "nM"}]}, {"smiles": "C[C@@H](Nc1ncnc2nc(Cl)c(C3CCS(=O)(=O)CC3)cc12)c1cccc(C(F)F)c1F", "note": "[Compound 393, (R)-4-(7-chloro-4-((1-(3-(difluoromethyl)-2-fluorophenyl)ethyl)amino)pyrido [2,3-d]pyrimidin-6-yl)tetrahydro-2H-thiopyran 1,1-dioxide]", "values": [{"measurement": "IC50", "setting": "SOS1; [3]", "result": "< 100", "unit": "nM"}, {"measurement": "IC50", "setting": "SOS1; [4]", "result": "< 50", "unit": "nM"}, {"measurement": "IC50", "setting": "[1]; [5]", "result": "≤ 1000", "unit": "nM"}, {"measurement": "IC50", "setting": "[1]; [6]", "result": "< 500", "unit": "nM"}, {"measurement": "IC50", "setting": "[2]; [7]", "result": "≤ 1000", "unit": "nM"}, {"measurement": "IC50", "setting": "[2]; [8]", "result": "< 500", "unit": "nM"}]}, {"smiles": "Cc1nc(N[C@H](C)c2cccc(C(F)F)c2F)c2cc(N3CCN(C)CC3)c(OCC3COC3)nc2n1", "note": "[Compound 397, (R)-N-(1-(3-(difluoromethyl)-2-fluorophenyl)ethyl)-2-methyl-6-(4-methylpiperazin-1-yl)-7-(oxetan-3-ylmethoxy)pyrido[2,3-d]pyrimidin-4-amine]", "values": [{"measurement": "IC50", "setting": "SOS1; [3]", "result": "< 100", "unit": "nM"}, {"measurement": "IC50", "setting": "SOS1; [4]", "result": "< 50", "unit": "nM"}, {"measurement": "IC50", "setting": "[1]; [5]", "result": "≤ 1000", "unit": "nM"}, {"measurement": "IC50", "setting": "[1]; [6]", "result": "< 500", "unit": "nM"}, {"measurement": "IC50", "setting": "[2]; [7]", "result": "≤ 1000", "unit": "nM"}, {"measurement": "IC50", "setting": "[2]; [8]", "result": "< 500", "unit": "nM"}]}, {"smiles": "COc1nc2ncnc(N[C@H](C)c3cccc(C(F)(F)C4CCN(C(C)C)CC4)c3)c2cc1C1CCN(C(C)C)CC1", "note": "[Compound 419, (R)—N-(1-(3-(difluoro(1-isopropylpiperidin-4-yl)methyl)phenyl)ethyl)-6-(1-isopropylpiperidin-4-yl)-7-methoxypyrido[2,3-d]pyrimidin-4-amine]", "values": [{"measurement": "IC50", "setting": "SOS1; [3]", "result": "< 100", "unit": "nM"}, {"measurement": "IC50", "setting": "SOS1; [4]", "result": "< 50", "unit": "nM"}, {"measurement": "IC50", "setting": "[1]; [5]", "result": "≤ 1000", "unit": "nM"}, {"measurement": "IC50", "setting": "[1]; [6]", "result": "< 500", "unit": "nM"}, {"measurement": "IC50", "setting": "[2]; [7]", "result": "≤ 1000", "unit": "nM"}, {"measurement": "IC50", "setting": "[2]; [8]", "result": "< 500", "unit": "nM"}]}, {"smiles": "COc1nc2nc(C)nc(N[C@H](C)c3cccc(C(F)(F)F)c3F)c2cc1N1CCN(C(=O)CN(C)C)CC1", "note": "[Compound 312, (R)-2-(dimethylamino)-1-(4-(4-((1-(2-fluoro-3-(trifluoromethyl)phenyl)ethyl)amino)-7-methoxy-2-methylpyrido[2,3-d]pyrimidin-6-yl)piperazin-1-yl)ethan-1-one]", "values": [{"measurement": "IC50", "setting": "SOS1; [3]", "result": "< 100", "unit": "nM"}, {"measurement": "IC50", "setting": "SOS1; [4]", "result": "< 50", "unit": "nM"}, {"measurement": "IC50", "setting": "[1]; [5]", "result": "≤ 1000", "unit": "nM"}, {"measurement": "IC50", "setting": "[1]; [6]", "result": "< 500", "unit": "nM"}, {"measurement": "IC50", "setting": "[2]; [7]", "result": "≤ 1000", "unit": "nM"}, {"measurement": "IC50", "setting": "[2]; [8]", "result": "< 500", "unit": "nM"}]}, {"smiles": "CCN1CCC(c2cc3c(N[C@H](C)c4cccc(C(F)F)c4F)nc(C)nc3nc2OC)CC1", "note": "[Compound 119, (R)-N-(1-(3-(difluoromethyl)-2-fluorophenyl)ethyl)-6-(1-ethylpiperidin-4-yl)-7-methoxy-2-methylpyrido[2,3-d]pyrimidin-4-amine]", "values": [{"measurement": "IC50", "setting": "SOS1; [3]", "result": "< 100", "unit": "nM"}, {"measurement": "IC50", "setting": "SOS1; [4]", "result": "< 50", "unit": "nM"}, {"measurement": "IC50", "setting": "[1]; [5]", "result": "≤ 1000", "unit": "nM"}, {"measurement": "IC50", "setting": "[1]; [6]", "result": "< 500", "unit": "nM"}, {"measurement": "IC50", "setting": "[2]; [7]", "result": "≤ 1000", "unit": "nM"}, {"measurement": "IC50", "setting": "[2]; [8]", "result": "< 500", "unit": "nM"}]}]}
